Test results as given in patent US11136311B2, “Heteroaromatic derivatives as NIK inhibitors” (Janssen Pharmaceutica NV, priority 2016, dated 2021).
Where two headings read alike, the source gives them in different places.

Legend:
[1] = biological target: recombinant human NF-kappaB-inducing kinase (NIK/MAP3K14) (Homo sapiens (Human), UniProt Q99558); assay: Inhibition of auto-phosphorylation of recombinant human NIK/MAP3K14 activity (AlphaScreen); format: biochemical; settings: averaged values over all measurements on all batches
Summary of the method: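 GST-tagged NIK at 0.2 nM autophosphorylated for 1 h at 25° C with 25 microM ATP in Tris pH 7.5, MgCl2, 1% DMSO. Phospho-IKK Ser176/180 antibody with AlphaScreen beads detected product. IC50 came from sigmoidal fits of blank-corrected % inhibition.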

JJN-3 cells = assay: Antiproliferative activity on JJN-3 (NIK translocated) multiple myeloma cells (CellTiter-Glo); format: cell-based, human; settings: JJN-3 (NIK translocated) cells, 96 hr, averaged values, read-out: JJN-3 Proliferation inhibition (IC50 (nM))
Summary of the method: (§1)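 Suspension myeloma cells in RPMI 1640 with 10% FCS, plated at 15000 (JJN-3) or 20000 (KMS12-BM) cells/well, were treated 96 hr with 9-point 1:3 compound dilutions at 0.3% DMSO. CellTiter-Glo luminescence, minus a time-zero blank, was expressed as % of untreated control growth.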

KMS12-BM cells = assay: Antiproliferative activity on KMS12-BM (NIK WT) multiple myeloma cells (CellTiter-Glo); format: cell-based, human; settings: KMS12-BM (NIK WT) cells, 96 hr, averaged values, read-out: KMS-12 Proliferation inhibition (IC50 (nM))
Summary of the method: as §1

[2] = system: P-IKKα levels in L363 cells; assay: Effect of compounds on P-IKKα levels in L363 (NIK translocated multiple myeloma) cells; format: cell-based, human; settings: averaged values, read-out: Inhibition of pIKKα_L-363 (IC50 (nM))
Summary of the method: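 L363 myeloma cells were primed 24 h with BAFF, then treated 2 h with compound (8-point, 1:3 dilutions, 1% DMSO) at 37°C. P-IKKα in lysates was measured by Mesoscale sandwich immunoassay, with the full-inhibition blank subtracted. IC50 came from a sigmoidal fit of % inhibition of control against log concentration.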

[3] = Homo sapiens, L-363, L363 cells

Chain of recombinant human NF-kappaB-inducing kinase (NIK/MAP3K14) (Q99558 whole entry): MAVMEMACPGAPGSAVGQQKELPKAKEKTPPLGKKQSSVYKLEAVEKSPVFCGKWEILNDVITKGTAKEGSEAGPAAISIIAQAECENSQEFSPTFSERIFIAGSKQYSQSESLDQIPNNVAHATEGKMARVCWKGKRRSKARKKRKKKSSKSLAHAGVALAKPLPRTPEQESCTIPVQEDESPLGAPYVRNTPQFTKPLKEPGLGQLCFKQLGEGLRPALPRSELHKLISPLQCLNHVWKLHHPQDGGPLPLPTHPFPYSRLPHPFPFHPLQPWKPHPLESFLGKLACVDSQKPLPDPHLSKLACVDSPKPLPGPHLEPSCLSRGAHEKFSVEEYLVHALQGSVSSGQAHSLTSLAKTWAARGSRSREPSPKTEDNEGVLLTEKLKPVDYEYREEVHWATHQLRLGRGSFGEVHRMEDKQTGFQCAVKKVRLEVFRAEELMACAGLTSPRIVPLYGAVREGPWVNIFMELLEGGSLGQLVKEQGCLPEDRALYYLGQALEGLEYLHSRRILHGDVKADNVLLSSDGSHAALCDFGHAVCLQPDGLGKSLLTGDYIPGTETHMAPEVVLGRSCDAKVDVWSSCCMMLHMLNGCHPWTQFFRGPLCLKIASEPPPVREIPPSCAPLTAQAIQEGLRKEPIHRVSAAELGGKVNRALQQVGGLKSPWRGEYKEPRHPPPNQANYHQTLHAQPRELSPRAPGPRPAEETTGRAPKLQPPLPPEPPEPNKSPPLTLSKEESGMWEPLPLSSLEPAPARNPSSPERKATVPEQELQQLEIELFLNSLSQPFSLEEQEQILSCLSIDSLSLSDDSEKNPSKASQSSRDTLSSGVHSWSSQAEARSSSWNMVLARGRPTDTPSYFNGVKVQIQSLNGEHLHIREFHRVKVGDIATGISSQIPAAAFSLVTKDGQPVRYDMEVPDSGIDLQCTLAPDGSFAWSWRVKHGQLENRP

| Compound | IC50 [1] | IC50 (JJN-3 cells; Homo sapiens, JJN-3, 96 h) | IC50 (KMS12-BM cells; Homo sapiens, KMS-12-BM, 96 h) | IC50 [2, 3] | IC50 (JJN-3 cells) | IC50 (KMS12-BM cells) | IC50 ([2]; L363 cells) |
| --- | --- | --- | --- | --- | --- | --- | --- |
| CC(C)Cc1c(Nc2nccc(-c3cc(C#N)c4c(c3)[C@@](C)(CO)CN4)n2)cnn1C [Compound 98] | 2 nM | 1020 nM | > 10000 nM | 5 nM |  |  |  |
| CN(C)C(=O)c1cc(Nc2nccc(-c3cc(C#N)c4c(c3)C(C)(CO)CN4)n2)n(C)n1 (stereo not shown) [Compound 86] | 2.6 nM | 871 nM | ~3720 nM | 15 nM |  |  |  |
| Cc1cc(Nc2nccc(-c3cc(C#N)c4c(c3)[C@@](C)(CO)CN4)n2)n(CC(=O)N2CCCC2)n1 [Compound 88] | 6.8 nM | 2140 nM | > 10000 nM | 9 nM |  |  |  |
| CNC(=O)c1cc(Nc2nccc(-c3cc(C#N)c4c(c3)[C@@](C)(CO)CN4)n2)nn1CC(F)F [Compound 197] | 2.1 nM | 204 nM | ~2240 nM | 4 nM |  |  |  |
| Cn1ncc(Nc2nccc(-c3cc(C#N)c4c(c3)[C@@](C)(CO)CN4)n2)c1OC1CC1 [Compound 192] | 8.1 nM | 91 nM | > 10000 nM | 6 nM |  |  |  |
| CN1CCN(C(=O)c2nn(CC(F)F)cc2Nc2nccc(-c3cc(C#N)c4c(c3)[C@@](C)(CO)CN4)n2)CC1 [Compound 184] | 5.4 nM | 224 nM | > 10000 nM | 17 nM |  |  |  |
| Cc1cc(Nc2nccc(-c3cc(C#N)c4c(c3)[C@@](C)(CO)CN4)n2)n(CC2CCOC2)n1 (single isomer, unassigned) [Compound 82] | ~5 nM |  |  |  | 182 nM | 380 nM | 13 nM |
| CN1CCC(F)(Cn2nc(Cl)cc2Nc2nccc(-c3cc(C#N)c4c(c3)[C@@](C)(CO)CN4)n2)CC1 [Compound 160] | 3.6 nM | 69 nM | ~5010 nM | 34 nM |  |  |  |
| Cc1cc(Nc2nccc(-c3cc(C#N)c4c(c3)[C@@](C)(CO)CN4)n2)nn1CC1CCCCO1 (stereo partly shown) [Compound 70] | 3.8 nM |  |  | 6 nM | 209 nM | 1860 nM |  |
| CC(C)CCn1nc(CO)cc1Nc1nccc(-c2cc(C#N)c3c(c2)[C@@](C)(CO)CN3)n1 [Compound 110] | 3 nM | 138 nM | 2040 nM | 4 nM |  |  |  |
| Cc1cc(Nc2nccc(-c3cc(C#N)c4c(c3)[C@@](C)(CO)CN4)n2)nn1CCC1CC1 [Compound 95] | 1.6 nM | 100 nM | 871 nM | 4 nM |  |  |  |
| CN1CCN(Cc2nn(C)cc2Nc2nccc(-c3cc(C#N)c4c(c3)[C@@](C)(CO)CN4)n2)CC1 [Compound 166] | 13 nM | 37 nM | > 10000 nM | 151 nM |  |  |  |
| CC(C)Cc1nn(C)cc1Nc1nccc(-c2cc(C#N)c3c(c2)[C@@](C)(CO)CN3)n1 [Compound 97] | 2 nM | 309 nM | > 10000 nM | 2 nM |  |  |  |
| Cc1cc(Nc2nccc(-c3cc(C#N)c4c(c3)[C@@](C)(CO)CN4)n2)nn1CCN1CCOCC1 [Compound 182] | 1.7 nM | 151 nM | 1380 nM | 1 nM |  |  |  |
| C[C@]1(CO)CNc2c(C#N)cc(-c3ccnc(Nc4cc(Cl)nn4CC4CCN(CCF)CC4)n3)cc21 [Compound 134] | 4.8 nM | 47 nM | 2240 nM | 107 nM |  |  |  |
| COCCCn1nc(Cl)cc1Nc1nccc(-c2cc(C#N)c3c(c2)[C@@](C)(CO)CN3)n1 [Compound 112] | 2.9 nM | 69 nM | 8910 nM | 13 nM |  |  |  |
| Cc1cc(Nc2nccc(-c3cc(C#N)c4c(c3)[C@@](C)(CO)CN4)n2)n(CCCO)n1 [Compound 92] | 3.5 nM | ~224 nM | 1510 nM | 7 nM |  |  |  |

| Compound | IC50 [1] | IC50 (JJN-3 cells; Homo sapiens, JJN-3, 96 h) | IC50 (KMS12-BM cells; Homo sapiens, KMS-12-BM, 96 h) | IC50 [2, 3] | IC50 (JJN-3 cells) | IC50 (KMS12-BM cells) | IC50 ([2]; L363 cells) |
| --- | --- | --- | --- | --- | --- | --- | --- |
| Cc1c(Nc2nccc(-c3cc(C#N)c4c(c3)[C@@](C)(CO)CN4)n2)cnn1C1CCOCC1 [Compound 72] | 2.9 nM | 102 nM | 724 nM | 3 nM |  |  |  |
| COCCCn1cc(Nc2nccc(-c3cc(C#N)c4c(c3)[C@@](C)(CO)CN4)n2)c(CCC(C)C)n1 [Compound 105] | 5.5 nM | 447 nM | > 10000 nM | 20 nM |  |  |  |
| C[C@]1(CO)CNc2c(C#N)cc(-c3ccnc(Nc4cc(Cl)nn4CCC4CC4)n3)cc21 [Compound 115] | 4.6 nM | 62 nM | 4270 nM | 10 nM |  |  |  |
| CC(C)n1nc(Nc2nccc(-c3cc(C#N)c4c(c3)C(C)(CO)CN4)n2)cc1C(=O)NC1CCOCC1 (stereo not shown) [Compound 35] | 7.9 nM | 209 nM | > 10000 nM | 4 nM |  |  |  |
| CC(C)CCc1c(Nc2nccc(-c3cc(C#N)c4c(c3)[C@@](C)(CO)CN4)n2)cnn1CCO [Compound 127] | 2 nM | 617 nM | > 10000 nM | 25 nM |  |  |  |
| COC[C@H](O)Cn1ncc(Nc2nccc(-c3cc(C#N)c4c(c3)[C@@](C)(CO)CN4)n2)c1OC [Compound 221] | 14.8 nM | 2290 nM | > 10000 nM | ~105 nM |  |  |  |
| Cc1cc(Nc2nccc(-c3cc(C#N)c4c(c3)[C@@](C)(CO)CN4)n2)n(CC2CCOC2)n1 (single isomer, unassigned) [Compound 81] | 4.3 nM | 195 nM |  | 11 nM |  | 851 nM |  |
| Cc1cc(Nc2nccc(-c3cc(C#N)c4c(c3)[C@@](C)(CO)CN4)n2)n(CC2CCN(CC(F)(F)F)CC2)n1 [Compound 137] | 6.3 nM | 676 nM | > 10000 nM | 36 nM |  |  |  |
| Cc1cc(Nc2nccc(-c3cc(C#N)c4c(c3)[C@@](C)(CO)CN4)n2)n(CC2CCCN(C)C2)n1 (single isomer, unassigned) [Compound 141] | 42 nM |  |  |  | 79 nM | > 10000 nM | 813 nM |
| C[C@]1(CO)CNc2c(C#N)cc(-c3ccnc(Nc4cc(Cl)nn4CC4CCN(CC(F)(F)F)CC4)n3)cc21 [Compound 152] | 17 nM | 646 nM | 7940 nM | 135 nM |  |  |  |
| COCCN1CCC(Cn2nc(C)cc2Nc2nccc(-c3cc(C#N)c4c(c3)[C@@](C)(CO)CN4)n2)CC1 [Compound 155] | 9.3 nM | 59 nM | > 10000 nM | 126 nM |  |  |  |
| CN1CC[C@@H](Cn2nc(Cl)cc2Nc2nccc(-c3cc(C#N)c4c(c3)[C@@](C)(CO)CN4)n2)C1 [Compound 161] | 4.3 nM | 204 nM | 2240 nM | 83 nM |  |  |  |
| CC(C)n1nc(Nc2nccc(-c3cc(C#N)c4c(c3)[C@@](C)(CO)CN4)n2)cc1C(=O)NC1CC1 [Compound 164] | 2.6 nM | 132 nM | 4680 nM | < 0.66 nM |  |  |  |
| Cn1cc(Nc2nccc(-c3cc(C#N)c4c(c3)[C@@](C)(CO)CN4)n2)c(OCCN2CCOCC2)n1 [Compound 203] | 4 nM | 339 nM | > 10000 nM | 25 nM |  |  |  |
| Cc1nc(Nc2nccc(-c3cc(C#N)c4c(c3)[C@@](C)(CO)CN4)n2)sc1C(=O)N(C)C [Compound 149] | 0.7 nM | 50 nM | ~741 nM | 8 nM |  |  |  |
| COCCc1nn(CC(F)F)cc1Nc1nccc(-c2cc(C#N)c3c(c2)[C@@](C)(CO)CN3)n1 [Compound 180] | 4.7 nM | 46 nM | ~6720 nM | 2 nM |  |  |  |
| CC(C)CCc1nn(Cc2cncn2C)cc1Nc1nccc(-c2cc(C#N)c3c(c2)[C@@](C)(CO)CN3)n1 [Compound 130] | 6 nM | 1000 nM | > 10000 nM | 115 nM |  |  |  |
